Test results as given in EP0520336A2, “Aldehyde derivatives and their use as calpain inhibitors” (FUJIREBIO Inc., priority 1991, dated 1992).
pIC50: −log10 of the molar value. Where a SMILES comes first, the peptide text is derived from it. [ ]: non-standard residue; d: D form. The star is where a group is joined. ξ: configuration not given here. Cbz = O=C(OCc1ccccc1)*; ξAze = O=C(O)C1CCN1

Tests used:
Calpain = experiment: Measurement of calpain inhibiting effect (casein hydrolysis, IC50 by Probit); type: biochemical, Japanese white rabbit; conditions: 30 °C for 30 minutes, pH = 7.5, IC50 by method of Probit
Protocol: Test Example 1 Measurement of Calpain Inhibiting Effect
Calpain was separated from a skeletal muscle of a Japanese white rabbit and partially purified according to the method of Tsuji and Imahori as described in J.Biochem. 90, 233-240 (1981), whereby the calpain for use in a test for investigating the calpain inhibiting effect (i.e., the inhibitory effect on calpain activity) of the aldehyde compounds according to the present invention was prepared.
The calpain inhibiting effect was measured in accordance with the method of Yoshimura et al. as described in J. Biol. Chem. 258, 8883-8889 (1983).
Each assay mixture was prepared by mixing 0.05 ml of a 4% casein solution, 0.05 ml of a 50 mM cysteine solution, 0.05 ml of a calpain solution, 0.025 ml of purified water, 0.025 ml of a 10% dimethyl sulfoxide solution containing each compound shown in Table 15 and 0.25 ml of a 200 mM imidazole hydrochloric acid buffer solution (pH = 7.5).
The thus prepared assay mixture was preincubated at 30 ° C for 3 minutes. The reaction was started by the addition of 0.05 ml of a 50 mM calcium chloride solution to the above mixture. After the incubation at 30 °C for 30 minutes, the reaction was terminated by the addition of 0.5 ml of 5% trichloroacetic acid.
The amount of a trichloroacetic-acid-soluble protein produced by hydrolysis of casein by calpain was measured by the spectrophotometric analysis in accordance with the method of Ross and Schatz as described in Anal. Biochem. 54, 304-306 (1973), and the absorbance (a) of each sample was measured.
The absorbance (b) of a blank sample which was treated similarly without any of the aldehyde compounds of the present invention, dissolved in a 10% dimethyl sulfoxide solution, was measured.
The inhibition of calpain activity was calculated in accordance with the formula [(b-a)/b] X 100, and the amount of each aldehyde compound necessary to inhibit calpain activity by 50% [IC50] was calculated according to the method of Probit.

[1] = test system: Platelet rich plasma (PRP); experiment: Measurement of platelet-aggregation inhibiting effect (collagen-induced aggregation in platelet rich plasma); type: cell-based, Japanese white rabbit; conditions: collagen-induced aggregation in rabbit PRP, preincubated at 37°C for 5 minutes, IC50 by method of Probit
Protocol: Test Example 2 Measurement of Platelet-aggregation Inhibiting Effect
Platelet rich plasma (PRP) was prepared and the platelet aggregation was measured in accordance with the method of Born and Cross as described in J. Phystol. 168, 178-195 (1963).
Blood of a Japanese white rabbit was drawn from a carotid artery of the rabbit. 9 parts by volume of the blood were mixed with 1 part by volume of a 3.8% aqueous solution of sodium citrate. The mixture was immediately centrifuged at 200 x g at 20 °C for 15 minutes, and PRP was obtained in the supernate. The number of platelets was calculated by use of an electronic cell counter (MEK-4150 manufactured by Nihon Kohden Kabushiki Kaisha). PRP with 55 X 10^4 or more platelets per 1 µl was employed in the tests.
10 µl of a test solution containing any of the aldehyde compounds of the present invention was added to 200 µl of PRP. The mixture was preincubated at 37°C for 5 minutes. To this mixture, 10 µl of collagen (22 µg/ml) was added to cause the aggregation. The aggregation was measured by Agricometer (NKK, PAT-4A).
In preparing the above test solution, each compound synthesized in the previously mentioned Examples as shown in Table 16 was dissolved in combined dimethyl sulfoxide and polyoxyethylene 60 hardened castor oil in ethanol. The mixture was diluted with an isotonic saline and the final concentration of the dimethyl sulfoxide and polyoxyethylene 60 hardened castor oil contained in the above mixture was adjusted to less than 1 %.
The inhibitory activity of each aldehyde compound on platelet aggregation was expressed by percentages compared with a blank test defined as 100% which was performed without any of the aldehyde compounds.
The amount of each aldehyde compound necessary to inhibit the platelet aggregation by 50% [IC50] was calculated according to the method of Probit.

[2] = Oryctolagus cuniculus, Platelet

| Compound | pIC50 (Calpain) | pIC50 [1, 2] | pIC50 [1] |
| --- | --- | --- | --- |
| O=C[C@H](CCSCc1ccccc1Cl)NC(=O)C1CCN(C(=O)c2ccc3ccccc3c2)CC1 [1-51, 1-(2-naphthoyl)piperidine-4-carboxylic acid-(1S)-[1-formyl-3-(2-chlorobenzylthio)]propylamide] | 5.85 | 5.00 |  |
| O=C[C@H](CCSCc1ccc(Cl)cc1)NC(=O)C1CCN(C(=O)/C=C/c2ccccc2Cl)CC1 [1-62, 1-(2-chlorocinnamoyl)piperidine-4-carboxylic acid-(1S)-[1-formyl-3-(4-chlorobenzylthio)]-propylamide] | 5.80 | 4.77 |  |
| CC(C)C[C@H](OC(=O)Nc1ccccc1)C(=O)N[C@H](C=O)CCSCc1ccc(Cl)cc1 [2-27] |  | 4.19 |  |
| CSCC[C@@H](C=O)NC(=O)C1CCN1C(=O)OCc1ccccc1 (stereo partly drawn) [Compound No. 1-1, (2R,2S)-1-benzyloxycarbonyl-azetidine-2-carboxylic acid-(1 S)-(1-formyl-3-methylthio)-propylamide] (Cbz-[ξAze]-Met-aldehyde) | 5.18 |  |  |
| O=C[C@H](Cc1ccccc1)NC(=O)C1CCN(C(=O)/C=C/c2ccccc2)CC1 [Compound No. 1-27, 1-cinnamoylpiperidine-4-carboxylic acid-(1S)-(1-formyl-2-phenyl)ethylamide] | 6.12 | 5.54 |  |
| O=C[C@H](Cc1ccccc1)NC(=O)C1CCN(C(=O)/C=C/c2ccccc2Cl)CC1 [Compound No. 1-42, 1-(2-chlorocinnamoyl)piperidine-4-carboxylic acid-(1S)-(1-formyl-2-phenyl)ethylamide] | 6.46 | 4.64 |  |
| O=C[C@H](Cc1ccccc1)NC(=O)C1CCN(C(=O)/C=C/c2cccc(Cl)c2)CC1 [Compound No. 1-43, 1-(3-chlorocinnamoyl)piperidine-4-carboxylic acid-(1S)-(1-formyl-2-phenyl)ethylamide] | 6.25 |  |  |
| O=C[C@H](Cc1ccccc1)NC(=O)C1CCN(C(=O)/C=C/c2ccc(Cl)cc2)CC1 [Compound No. 1-44, 1-(4-chlorocinnamoyl)piperidine-4-carboxylic acid-(1S)-(1-formyl-2-phenyl)ethylamide] | 6.00 | 4.33 |  |
| O=C[C@H](Cc1ccccc1F)NC(=O)C1CCN(C(=O)c2ccc3ccccc3c2)CC1 [Compound No. 1-55, 1-(2-naphthoyl)piperidine-4-carboxylic acid-(1S)-[1-formyl-2-(2-fluorophenyl)]ethylamide] | 6.20 |  |  |
| O=C[C@H](Cc1c[nH]c2ccccc12)NC(=O)C1CCN(C(=O)/C=C/c2ccccc2Cl)CC1 [Compound No. 1-58, 1-(2-chlorocinnamoyl)piperidine-4-carboxylic acid-(1S)-[1-formyl-2-(3-indolyl)]ethylamide] | 6.17 | 4.66 |  |
| O=C[C@H](Cc1ccc(OCc2ccccc2)cc1)NC(=O)C1CCN(C(=O)/C=C/c2ccccc2)CC1 [Compound No. 1-61, 1-cinnamoylpiperidine-4-carboxylic acid-(1S)-[1-formyl-2-(4-benzyloxyphenyl)]ethyl] | 6.06 | 5.02 |  |
| CSCC[C@@H](C=O)NC(=O)[C@H](CC(C)C)OC(=O)Nc1ccccc1 [Compound No. 2-3] | 5.80 |  |  |
| CC(C)C[C@H](OC(=O)Nc1ccccc1)C(=O)N[C@H](C=O)CCSCc1ccccc1F [Compound No. 2-17] | 5.44 |  |  |
| CC(C)C[C@H](OC(=O)Nc1cccc2ccccc12)C(=O)N[C@H](C=O)CCSCc1ccccc1F [Compound No. 2-18] | 6.24 |  |  |
| CC(C)C[C@H](OC(=O)Nc1ccccc1)C(=O)N[C@H](C=O)Cc1ccccc1 [Compound No. 2-19] | 6.23 | 5.38 |  |
| CC(C)C[C@H](OC(=O)Nc1cccc2ccccc12)C(=O)N[C@H](C=O)Cc1ccccc1 [Compound No. 2-20] | 5.36 |  |  |
| CSCC[C@@H](C=O)NC(=O)[C@@H](OC(=O)Nc1ccccc1)C(C)C [Compound No. 2-21] | 5.70 |  |  |
| CSCC[C@@H](C=O)NC(=O)[C@@H](OC(=O)Nc1cccc2ccccc12)C(C)C [Compound No. 2-22] | 5.48 |  |  |
| L-N-benzyloxycarbonylleucine-(2S)-[1-formyl-3-(2-chlorophenyl)thio]propylamide [Compound No. 3-42] | 6.36 |  | 4.03 |
| L-N-benzyloxycarbonylleucine-(2S)-[1-formyl-3-(2-fluorophenyl)thio]propylamide [Compound No. 3-41] | 6.57 |  | 4.25 |
| L-N-benzyloxycarbonylleucine-(2S)-[1-formyl-3-(4-chlorophenyl)thio]propylamide [Compound No. 3-43] | 6.28 |  | 4.28 |

More lines, main results first:

| pIC50 (Calpain) | Compound | pIC50 [1, 2] | pIC50 [1] |
| --- | --- | --- | --- |
| 5.52 | O=C[C@H](Cc1ccccc1)NC(=O)C1CCN(C(=O)OCc2ccccc2)CC1 [1-7, 1-benzyloxycarbonylpiperidine-4-carboxylic acid-(1S)-(1-formyl-2-phenyl)ethylamide] |  |  |
| 6.05 | O=C[C@H](Cc1ccccc1)NC(=O)C1CCN(C(=O)CCCc2ccccc2)CC1 [1-26, 1-(4-phenylbutyryl)piperidine-4-carboxylic acid-(1S)-(1-formyl-2-phenyl)ethylamide] |  |  |
| 6.66 | O=C[C@H](Cc1ccccc1)NC(=O)C1CCN(C(=O)c2ccc3ccccc3c2)CC1 [1-28, 1-(2-naphthoyl)piperidine-4-carboxylic acid-(1S)-(1-formyl-2-phenyl)ethylamide] |  |  |
| 5.96 | Cc1ccc(S(=O)(=O)N2CCC(C(=O)N[C@H](C=O)Cc3ccccc3)CC2)cc1 [1-30, 1-(4-methylphenylsulfonyl)piperidine-4-carboxylic acid-(1S)-(1-formyl-2-phenyl)ethylamide] |  |  |
| 5.70 | O=C[C@H](Cc1ccccc1)NC(=O)C1CCN(C(=O)c2cccs2)CC1 [1-32, 1-(2-thienylcarbonyl)piperidine-4-carboxylic acid-(1S)-(1-formyl-2-phenyl)ethylamide] |  |  |
| 6.77 | O=C[C@H](Cc1ccccc1)NC(=O)C1CCN(S(=O)(=O)c2ccc3ccccc3c2)CC1 [1-34, 1-(2-naphthylsulfonyl)piperidine-4-carboxylic acid-(1S)-(1-formyl-2-phenyl)ethylamide] |  |  |
| 6.11 | O=C[C@H](Cc1ccccc1)NC(=O)C1CCN(C(=O)c2ccc(Cl)c(Cl)c2)CC1 [1-36, 1-(3,4-dichlorobenzoyl)piperidine-4-carboxylic acid-(1S)-(1-formyl-2-phenyl)ethylamide] |  |  |
| 5.72 | O=C[C@H](Cc1ccccc1)NC(=O)C1CCN(C(=O)C(c2ccccc2)c2ccccc2)CC1 [1-38, 1-(diphenylacetyl)piperidine-4-carboxylic acid-(1S)-(1-formyl-2-phenyl)ethylamide] |  |  |
| 5.64 | O=C[C@H](Cc1ccccc1)NC(=O)C1CCN(C(=O)C2c3ccccc3-c3ccccc32)CC1 [1-39, 1-(9-fluorenylcarbonyl)piperidine-4-carboxylic acid-(1S)-(1-formyl-2-phenyl)ethylamide] |  |  |
| 6.03 | O=C[C@H](Cc1ccccc1)NC(=O)C1CCN(C(=O)Nc2ccccc2)CC1 [1-41, 1-(N-phenylcarbamoyl)piperidine-4-carboxylic acid-(1S)-(1-formyl-2-phenyl)ethylamide] |  |  |
| 5.91 | CC(C)C[C@H](OC(=O)Nc1cccc2ccccc12)C(=O)N[C@H](C=O)CCc1ccccc1 [2-13] |  |  |
| 5.72 | CSCC[C@@H](C=O)NC(=O)[C@H](CC(C)C)OC(=O)Nc1cccc2ccccc12 [2-14] |  |  |
